Results as given in patent US20020091144A1, “Treatment of apoptotic cell death” (Johns Hopkins University, priority 2000, published 2002).

Columns and labels:
[1] = system: Neonatal rat cardiac myocytes; assay: Mitochondrial membrane potential, JC-1 flow cytometry, cardiac myocytes; assay type: cell-based
Experimental: The effects of mitoKATP channel activation by flow cytometry (FIGS. 2F-J) were further quantified. Incubation with 200 μM H2O2 for 2 h decreased the red fluorescence and shifted the distribution curve leftward. […] To confirm the central role of mitoKATP channels, we examined another mitoKATP channel opener, pinacidil.
(§1) Cytoprotective effects of diazoxide in neurons also was evaluated. […] Staining was conducted as follows: loss of mitochondrial membrane potential (ΨΔ) was assessed using either a laser scanning confocal microscope or flow cytometry analysis of cells stained with 5,5′,6,6′-tetrachloro-1,1′,3,3′-tetraethylbenzimidazolecarbocyanide iodine (JC-1, Molecular Probes). Cells were incubated with 2 μg/mL JC-1 for 10 min in 37° C. After washing the dye, cells on dishes were scanned with a confocal microscope at 10x magnification. The dye was excited by the 488 nm line of an argon laser, and the 543 nm line of a helium/neon laser. The red emission of the dye is due to a potential-dependent aggregation in the mitochondria, reflecting ΨΔ. Green fluorescence reflects the monomeric form of JC-1, occuring in the cytosol after mitochondrial membrane depolarization. The fluorescence intensity of the field was measured using integrated image analysis software (Simple32; Compix, Inc.), which was programmed to automatically detect all areas of red or green fluorescence above background. The data are plotted as mean values of arbitrary units of fluorescence intensity. For flow cytometry analysis, cells were harvested by trypsinization after loading of the dye, and analyzed by FACScan (10,000 cells/sample). The excitation wavelength was 488 nm, and the emission fluorescence for JC-1 was monitored at 530 (FL-1) and 582 nm (FL-2). The flow cytometry data are analyzed using Cell Quest (Becton Dickinson, Immunocytometry Systems).

[2] = system: Neonatal rat cardiac myocytes; assay: TUNEL staining of H2O2-induced apoptosis; assay type: cell-based
Experimental: (§2) Neonatal rat cardiac myocytes in primary culture were randomly assigned to one of four experimental groups: 1) control group, 2) incubation with 200 μM H2O2, 3) 100 μM diazoxide, applied together with 200 μM H2O2, 4) 100 μM diazoxide and 500 μM 5-HD, applied together with 200 μM H2O2. […] Staining was conducted as follows. TUNEL staining was performed according to the manufacturer's protocol (Roche Molecular Biochemicals). Fluorescein labels incorporated in nucleotide polymers were detected by laser scanning confocal microscopy at excitation wavelength of 488 rim (argon laser). […] Necrotic cells had been excluded from these specimens since they became non-adherent and were removed when the medium was decanted and the cell layers were washed in PBS.

[3] = system: cytochrome c; assay: Cytochrome c immunofluorescence (translocation to cytosol); assay type: cell-based, rat
Experimental: as §2, with “PBS. […] This effect was blocked by the mitoKATP channel antagonist 5-HD (FIG. 1D). […] That immunofluorescence was conducted as follows: cells were plated on glass coverslips, treated with drugs as indicated, fixed in ice-cold 1:1 mixture of methanol/acetone, blocked with 10% normal goat serum and 0.075% saponin in PBS, and incubated with primary antibody dissolved in blocking solution at a dilution of 1:100. […] These coverslips were mounted with antifading fluorescence mounting medium and were examined by a laser scanning confocal microscope (Zeiss, LSM 410), using 40x water-immersion lens and 2x optical zoom. […]” for “PBS.”

[4] = system: caspase-3; assay: Activated caspase-3 immunofluorescent staining; assay type: cell-based, rat
Experimental: as §2, with “PBS. […] This effect was blocked by the mitoKATP channel antagonist 5-HD (FIG. 1D). […] That immunofluorescence was conducted as follows: cells were plated on glass coverslips, treated with drugs as indicated, fixed in ice-cold 1:1 mixture of methanol/acetone, blocked with 10% normal goat serum and 0.075% saponin in PBS, and incubated with primary antibody dissolved in blocking solution at a dilution of 1:100. […] These coverslips were mounted with antifading fluorescence mounting medium and were examined by a laser scanning confocal microscope (Zeiss, LSM 410), using 40x water-immersion lens and 2x optical zoom. […]” for “PBS.”

[5] = system: caspase-7; assay: Activated caspase-7 immunofluorescent staining; assay type: cell-based, rat
Experimental: as §2, with “PBS. […] This effect was blocked by the mitoKATP channel antagonist 5-HD (FIG. 1D). […] That immunofluorescence was conducted as follows: cells were plated on glass coverslips, treated with drugs as indicated, fixed in ice-cold 1:1 mixture of methanol/acetone, blocked with 10% normal goat serum and 0.075% saponin in PBS, and incubated with primary antibody dissolved in blocking solution at a dilution of 1:100. […] These coverslips were mounted with antifading fluorescence mounting medium and were examined by a laser scanning confocal microscope (Zeiss, LSM 410), using 40x water-immersion lens and 2x optical zoom. […]” for “PBS.”

[6] = system: poly(ADP-ribose) polymerase (PARP); assay: Cleaved PARP immunofluorescent staining; assay type: cell-based, rat
Experimental: as §2, with “PBS. […] This effect was blocked by the mitoKATP channel antagonist 5-HD (FIG. 1D). […] That immunofluorescence was conducted as follows: cells were plated on glass coverslips, treated with drugs as indicated, fixed in ice-cold 1:1 mixture of methanol/acetone, blocked with 10% normal goat serum and 0.075% saponin in PBS, and incubated with primary antibody dissolved in blocking solution at a dilution of 1:100. […] These coverslips were mounted with antifading fluorescence mounting medium and were examined by a laser scanning confocal microscope (Zeiss, LSM 410), using 40x water-immersion lens and 2x optical zoom. […]” for “PBS.”

[7] = system: PARP holoenzyme; assay: Immunoblot of PARP holoenzyme; assay type: cell-based, rat
Experimental: (U) Immunoblot of PARP in neonatal rat cardiac myocytes. Cell lysates from each experimental group were subjected to immunoblot analysis (30 μg protein/lane) with monoclonal antibody against 117-kDa PARP holoenzyme. Cells were treated for either 8 h or 16 hours. To confirm these findings using complementary methods, we examined PARP protein levels as a biochemical indicator of the activation of downstream caspases in each group.

[8] = system: Neonatal rat cardiac myocytes; assay: Mitochondrial membrane potential, JC-1 confocal image analysis, cardiac myocytes; assay type: cell-based
Experimental: Redistribution of cytochrome c has been linked to the loss of mitochondrial membrane potential (ΨΔ) and the opening of the mitochondrial permeability transition pore (23). We assessed ΨΔ in H2O2-stimulated myocytes using a fluorescent probe, JC-1 (24). […] Cells exposed to 200 μM H2O2 for 2 h lose punctate red staining (FIG. 2B), in favor of a diffuse green cytosolic signal indicative of the loss of ΨΔ. […] The protective effect of diazoxide is blocked by 500 μM 5-HD (FIG. 2D). These observations were rendered quantitative by automated image analysis (24). FIG. 2E summarizes the red fluorescence, an indicator of ΨΔ.
as §1

[9] = system: rat cerebellar granule neurons; assay: Mitochondrial membrane potential, JC-1 staining, cerebellar granule neurons; assay type: cell-based
Experimental: as §1, with “The red emission of the dye is due to a potential-dependent aggregation in the mitochondria, reflecting ΨΔ.” left out, “The flow cytometry data are analyzed using Cell Quest (Becton Dickinson, Immunocytometry Systems).” left out

[10] = system: mitoKATP channel; conditions: intact heart cells; read-out: value for mitoKATP channel activation; cited from earlier work
[11] = 500 μM 5-HD + 100 μM diazoxide + 200 μM H2O2
[12] = 100 μM diazoxide with 200 μM H2O2

SMILES: COc1ccc(Cl)cc1C(=O)NCCc1ccc(S(=O)(=O)NC(=O)NC2CCCCC2)cc1 [glibenclamide]
- effect of KATP blocker on diazoxide protection of ΨΔ ([1]; glibenclamide 10 μM with diazoxide and H2O2): reversed the salutary effect of diazoxide

SMILES: CC(N/C(=N\C#N)Nc1ccncc1)C(C)(C)C (stereo not shown) [pinacidil]
- restoring the loss of ΨΔ induced by H2O2 ([1]; 100 μM pinacidil, 200 μM H2O2): equi-effective to diazoxide

SMILES: CCCCCC(O)CCCC(=O)O (stereo not shown) [5-HD, 5-hydroxydecanoate]
- effect on diazoxide protection against TUNEL positivity ([2]; 500 μM 5-HD + 100 μM diazoxide + 200 μM H2O2, 16 h): blocked
- effect on diazoxide inhibition of cytochrome c translocation [3, 11]: abrogated the effect of diazoxide
- effect on diazoxide inhibition of caspase-3 activation [4, 11]: negated the effect of diazoxide
- effect on diazoxide inhibition of caspase-7 activation [5, 11]: abolished the anti-apoptosic effect of diazoxide
- effect on diazoxide inhibition of PARP cleavage [6, 11]: prevented the diazoxide effect
- effect on diazoxide protection of PARP holoenzyme ([7]; 5-HD + diazoxide + H2O2, 8 h or 16 hours): abolished the protective effect of diazoxide
- effect on diazoxide prevention of loss of ΨΔ, automated image analysis ([8]; 500 μM 5-HD + 100 μM diazoxide + 200 μM H2O2 for 2 h): antagonized the salutary effect of diazoxide
- effect on diazoxide protection of ΨΔ ([8]; 500 μM 5-HD + 100 μM diazoxide + 200 μM H2O2 for 2 h, confocal images): blocked
- effect of 5-HD alone on ΨΔ ([1]; 5-HD 500 μM + H2O2, absence of diazoxide): no effect on ΨΔ
- effect on diazoxide protection of ΨΔ, flow cytometry ([1]; 5-HD 500 μM + diazoxide 100 μM + 200 μM H2O2): abolished the effect of diazoxide
- effect on diazoxide protection of ΨΔ in neurons ([9]; 500 μM 5-HD + 100 μM diazoxide + 100 μM H2O2 for 1 h): blocked

SMILES: CC1=NS(=O)(=O)c2cc(Cl)ccc2N1 [diazoxide]
- H2O2-induced TUNEL positive nuclei ([2]; 100 μM diazoxide with 200 μM H2O2, 16 h): decreased the frequency of H2O2-induced TUNEL positive nuclei
- H2O2-induced cytochrome c translocation to the cytoplasm ([3]; 100 μM diazoxide with 200 μM H2O2, 16 hours): inhibited the translocation of cytochrome c
- H2O2-induced activation of caspase-3 [4, 12]: inhibited the H2O2-induced activation of caspase-3
- H2O2-induced activation of caspase-7 [5, 12]: inhibited H2O2-induced activation of caspase-7
- H2O2-induced PARP cleavage [6, 12]: inhibited the H2O2-induced PARP cleavage
- loss of 117-kDa PARP holoenzyme band ([7]; diazoxide with H2O2, 8 h or 16 hours): attenuates the loss of PARP holoenzyme
- H2O2-induced loss of mitochondrial membrane potential (ΨΔ), JC-1 red staining ([8]; 100 μM diazoxide, 200 μM H2O2 for 2 h, confocal images): protects against H2O2-induced loss of mitochondrial integrity
- EC50 ([8]; Rattus norvegicus, 200 μM H2O2 for 2 h, red fluorescence, automated image analysis, read-out: EC50 for prevention of loss of ΨΔ): 40 µM
- loss of ΨΔ, red fluorescence by automated image analysis ([8]; diazoxide 20-200 μM, 200 μM H2O2 for 2 h): prevented loss of ΨΔ in a dose-dependent manner
- H2O2-induced dissipation of ΨΔ, red fluorescence distribution ([1]; diazoxide 20, 50, 100 μM, 200 μM H2O2 for 2 h): prevented the H2O2-induced dissipation of ΨΔ in a dose-dependent manner
- H2O2-induced loss of ΨΔ in neurons, JC-1 red staining ([9]; 100 μM diazoxide, 100 μM H2O2 for 1 h): protects against H2O2-induced loss of mitochondrial integrity
- EC50 [10]: 27 µM
